Reference: patent US5310762A, “Medicaments” (Burroughs Wellcome Co., priority 1988, dated 1994)

Key:
Pneumocystis carinii = experiment: Activity against Pneumocystis carinii: treatment of latent infection in dexamethasone-treated rats; type: in vivo; conditions: weeks 5-7; for SCORE 2 (number of rats): 2+: focal areas of pneumonitis surrounded by 10 to 25 h.p.f. of normal lung; for SCORE 3 (number of rats): 3+: lung diffusely and extensively involved; for SCORE 4 (number of rats): score 4 not defined; for SCORE 0 (number of rats): score none: no organism seen; for SCORE 1 (number of rats): 1+: cysts sparsely distributed, less than one per 25 h.p.f.
Experimental: Groups of 10 rats were treated with dexamethasone to allow latent Pneumocystis carinii infection to develop. Tetracycline was also administered to protect against bacterial infections. […] In parallel with each test compound, Celacol was administered to one group of rats (also treated with dexamethasone and tetracycline) as a control. At the end of the test period the animals were sacrificed and autopsies carried out. The lungs were removed and the right lung bisected. An imprint was made onto microscope slides and stained with toluidine blue. One half of the lung was placed in formalin, processed in paraffin blocks, sectioned and stained by the Gomori methanamine silver nitrate method. After autopsy the extent of P. carinii pneumonitis was scored under coded study as none if no organism seen; 1+ if P. carinii cysts seen sparsely distributed with less than one per 25 high power field (h.p.f.); 2+ if focal areas of P. carinii pneumonitis surrounded by 10 to 25 h.p.f. of normal lung and 3+ if lung diffusely and extensively involved with organisms in almost all h.p.f.s.

Water-solubility = type: physicochemical; conditions: as compared with the corresponding compound wherein R13 is hydroxy
[1] = tested on: Pneumocystis carinii pneumonia; conditions: AIDS patients; Wofsy, Antimicrobial Agents Annual 1986; cited from earlier work
[2] = human, in vivo; cited from earlier work

Row | Molecule | % INFECTED (Pneumocystis carinii; 25 mg/kg/day oral) [%] | NO. INFECTED/NO. EXAMINED (Pneumocystis carinii; 25 mg/kg/day oral) | SCORE 2 (number of rats) (Pneumocystis carinii; 25 mg/kg/day oral) | SCORE 3 (number of rats) (Pneumocystis carinii; 25 mg/kg/day oral) | SCORE 4 (number of rats) (Pneumocystis carinii; 25 mg/kg/day oral) | SCORE 0 (number of rats) (Pneumocystis carinii; 25 mg/kg/day oral) | % INFECTED (Pneumocystis carinii; 50 mg/kg/day oral) [%] | NO. INFECTED/NO. EXAMINED (Pneumocystis carinii; 50 mg/kg/day oral) | SCORE 1 (number of rats) (Pneumocystis carinii; 50 mg/kg/day oral) | SCORE 2 (number of rats) (Pneumocystis carinii; 50 mg/kg/day oral) | SCORE 3 (number of rats) (Pneumocystis carinii; 50 mg/kg/day oral) | SCORE 4 (number of rats) (Pneumocystis carinii; 50 mg/kg/day oral) | SCORE 0 (number of rats) (Pneumocystis carinii; 50 mg/kg/day oral) | % INFECTED (Pneumocystis carinii; 100 mg/kg/day oral) [%] | NO. INFECTED/NO. EXAMINED (Pneumocystis carinii; 100 mg/kg/day oral) | SCORE 1 (number of rats) (Pneumocystis carinii; 100 mg/kg/day oral) | SCORE 2 (number of rats) (Pneumocystis carinii; 100 mg/kg/day oral) | SCORE 3 (number of rats) (Pneumocystis carinii; 100 mg/kg/day oral) | SCORE 4 (number of rats) (Pneumocystis carinii; 100 mg/kg/day oral) | SCORE 0 (number of rats) (Pneumocystis carinii; 100 mg/kg/day oral) | also measured
1 | O=C1C(Cl)=C(C2CCC(c3ccc(Cl)cc3)CC2)C(=O)c2ccccc21 (stereo not shown) [A, 2-[4-(4-chlorophenyl)cyclohexyl]-3-chloro-1,4-naphthoquinone] | 100 | 14/14 | 6 | 3 | 0 | 0 | 100 | 15/15 | 8 | 5 | 2 | 0 | 0 | 73 | 11/15 | 6 | 4 | 1 | 0 | 4 | SCORE 1 (number of rats) (Pneumocystis carinii; oral): 5
2 | CC(C)(C)C1CCC(CC2=C(O)C(=O)c3ccccc3C2=O)CC1 (stereo not shown) [C, 2-(4-t-butylcyclohexylmethyl)-3-hydroxy-1,4-naphthoquinone] | 93 | 13/14 | 2 | 4 | 4 | 1 | 100 | 14/14 | 2 | 6 | 4 | 2 | 0 | 92 | 12/13 | 4 | 2 | 6 | 0 | 1 | SCORE 1 (number of rats) (Pneumocystis carinii; oral): 3
3 | CC(C)(C)C1CCC(C2=C(O)C(=O)c3ccccc3C2=O)CC1 (stereo not shown) [Compound B, 2-(4-t-butylcyclohexyl)-3-hydroxy-1,4-naphthoquinone] | 100 | 15/15 | 7 | 1 | 0 | 0 | 93 | 13/14 | 8 | 4 | 1 | 0 | 1 | 80 | 12/15 | 8 | 3 | 0 | 1 | 3 | SCORE 1 (number of rats) (Pneumocystis carinii; oral): 7
4 | CC(=O)OC1=C([C@H]2CC[C@H](c3ccc(Cl)cc3)CC2)C(=O)c2ccccc2C1=O [Example 5, 2-Acetoxy-3-[trans-4-(4-chlorophenyl)cyclohexyl]-1,4-naphthoquinone] | – | – | – | – | – | – | – | – | – | – | – | – | – | – | – | – | – | – | – | – | water-solubility (Water-solubility): improved water-solubility
5 | N=C(N)c1ccc(OCCCCCOc2ccc(C(=N)N)cc2)cc1 [pentamidine] | – | – | – | – | – | – | – | – | – | – | – | – | – | – | – | – | – | – | – | – | % effective [1]: 50-70%; incidence of adverse reactions [2]: around 50%
6 | trimethoprim-sulphamethoxazole | – | – | – | – | – | – | – | – | – | – | – | – | – | – | – | – | – | – | – | – | % effective [1]: 50-70%
